The values that follow come from PubChem BioAssay AID1259407 (Chemical Carcinogenesis Research Information System (CCRIS), 2018).

This data set concerns CCRIS mutagenicity, Ames/micronucleus/aberration tests. In words: CCRIS mutagenicity studies.
[1] abbreviates: Test System: AMES SALMONELLA TYPHIMURIUM, Strain/Indicator: TA98, Metabolic Activation: HAMSTER, LIVER, S-9, AROCLOR 1254 (10%), Method: PREINCUBATION
[2] abbreviates: Test System: AMES SALMONELLA TYPHIMURIUM, Strain/Indicator: TA98, Metabolic Activation: NONE, Method: PREINCUBATION
The mark [3] stands for this setting: Test System: AMES SALMONELLA TYPHIMURIUM, Strain/Indicator: TA98, Metabolic Activation: RAT, LIVER, S-9, AROCLOR 1254 (10%), Method: PREINCUBATION
[4] abbreviates: Test System: AMES SALMONELLA TYPHIMURIUM, Strain/Indicator: TA100, Metabolic Activation: HAMSTER, LIVER, S-9, AROCLOR 1254 (10%), Method: PREINCUBATION
[5] abbreviates: Test System: AMES SALMONELLA TYPHIMURIUM, Strain/Indicator: TA100, Metabolic Activation: NONE, Method: PREINCUBATION
Setting [6] is: Test System: AMES SALMONELLA TYPHIMURIUM, Strain/Indicator: TA100, Metabolic Activation: RAT, LIVER, S-9, AROCLOR 1254 (10%), Method: PREINCUBATION
Setting [7] is: Test System: AMES SALMONELLA TYPHIMURIUM, Strain/Indicator: TA1535, Metabolic Activation: HAMSTER, LIVER, S-9, AROCLOR 1254 (10%), Method: PREINCUBATION
The mark [8] stands for this setting: Test System: AMES SALMONELLA TYPHIMURIUM, Strain/Indicator: TA1535, Metabolic Activation: NONE, Method: PREINCUBATION
Where [9] appears, read: Test System: AMES SALMONELLA TYPHIMURIUM, Strain/Indicator: TA1535, Metabolic Activation: RAT, LIVER, S-9, AROCLOR 1254 (10%), Method: PREINCUBATION
Where [10] appears, read: Test System: AMES SALMONELLA TYPHIMURIUM, Strain/Indicator: TA98, Metabolic Activation: NONE, Method: STANDARD PLATE.
Where [11] appears, read: Test System: AMES SALMONELLA TYPHIMURIUM, Strain/Indicator: TA98, Metabolic Activation: RAT, LIVER, S-9, AROCLOR 1254, Method: STANDARD PLATE.
Where [12] appears, read: Test System: AMES SALMONELLA TYPHIMURIUM, Strain/Indicator: TA100, Metabolic Activation: NONE, Method: STANDARD PLATE.
Where [13] appears, read: Test System: AMES SALMONELLA TYPHIMURIUM, Strain/Indicator: TA100, Metabolic Activation: RAT, LIVER, S-9, AROCLOR 1254, Method: STANDARD PLATE.
Where [14] appears, read: Test System: AMES SALMONELLA TYPHIMURIUM, Strain/Indicator: TA1535, Metabolic Activation: NONE, Method: STANDARD PLATE.

Calls of active or inactive are those of the source. No rule for the calls is given here.

For `N#CCc1ccccc1[N+](=O)[O-]`, the mutagenic call reads like this: (Test System: AMES SALMONELLA TYPHIMURIUM, Strain/Indicator: TA97, Metabolic Activation: HAMSTER, LIVER, S-9, AROCLOR 1254 (10%), Method: PREINCUBATION) “inactive; negative”; (Test System: AMES SALMONELLA TYPHIMURIUM, Strain/Indicator: TA97, Metabolic Activation: NONE, Method: PREINCUBATION) “active; positive”; (Test System: AMES SALMONELLA TYPHIMURIUM, Strain/Indicator: TA97, Metabolic Activation: RAT, LIVER, S-9, AROCLOR 1254 (10%), Method: PREINCUBATION) “inactive; negative”; under setting [1], “inactive; negative”; under setting [2], “active; positive”; under setting [3], “inactive; negative”. Also, the mutagenic call by setting is: under setting [4], “active; positive”; under setting [5], “active; positive”; under setting [6], “active; positive”; under setting [7], “active; positive”; under setting [8], “inactive; negative”; under setting [9], “active; positive”.
`O=Cc1cccc(Cl)c1`: the mutagenic call reads like this: under setting [2], “inactive; negative”; (Test System: AMES SALMONELLA TYPHIMURIUM, Strain/Indicator: TA98, Metabolic Activation: RAT LIVER S-9, PCB, Method: PREINCUBATION) “inactive; negative”; under setting [5], “inactive; negative”; (Test System: AMES SALMONELLA TYPHIMURIUM, Strain/Indicator: TA100, Metabolic Activation: RAT LIVER S-9, PCB, Method: PREINCUBATION) “inactive; negative”; (Test System: AMES SALMONELLA TYPHIMURIUM, Strain/Indicator: TA104, Metabolic Activation: NONE, Method: PREINCUBATION) “inactive; negative”; (Test System: AMES SALMONELLA TYPHIMURIUM, Strain/Indicator: TA104, Metabolic Activation: RAT LIVER S-9, PCB, Method: PREINCUBATION) “inactive; negative”. The mutagenic call is, setting by setting: (Test System: E.COLI, Strain/Indicator: WP2 UVRA, Metabolic Activation: NONE, Method: PREINCUBATION) “inactive; negative”; (Test System: E.COLI, Strain/Indicator: WP2 UVRA, Metabolic Activation: RAT LIVER S-9, PCB, Method: PREINCUBATION) “inactive; negative”.
In the case of `COc1ccc([C@@H]2CC(=O)c3c(O)cc(O[C@@H]4O[C@H](CO[C@@H]5O[C@@H](C)[C@H](O)[C@@H](O)[C@H]5O)[C@@H](O)[C@H](O)[C@H]4O)cc3O2)cc1O`, the mutagenic call is “inactive; negative” under setting [10]; “inactive; negative” under setting [11]; “inactive; negative” under setting [12]; “inactive; negative” under setting [13]; “inactive; negative” under setting [14]; “inactive; negative” (Test System: AMES SALMONELLA TYPHIMURIUM, Strain/Indicator: TA1535, Metabolic Activation: RAT, LIVER, S-9, AROCLOR 1254, Method: STANDARD PLATE). In addition, the mutagenic call by setting is: (Test System: AMES SALMONELLA TYPHIMURIUM, Strain/Indicator: TA1537, Metabolic Activation: NONE, Method: STANDARD PLATE) “inactive; negative”; (Test System: AMES SALMONELLA TYPHIMURIUM, Strain/Indicator: TA1537, Metabolic Activation: RAT, LIVER, S-9, AROCLOR 1254, Method: STANDARD PLATE) “inactive; negative”; (Test System: AMES SALMONELLA TYPHIMURIUM, Strain/Indicator: TA1538, Metabolic Activation: NONE, Method: STANDARD PLATE) “inactive; negative”; (Test System: AMES SALMONELLA TYPHIMURIUM, Strain/Indicator: TA1538, Metabolic Activation: RAT, LIVER, S-9, AROCLOR 1254, Method: STANDARD PLATE) “inactive; negative”; (Test System: E. COLI, Strain/Indicator: WP2, Metabolic Activation: NONE, Method: STANDARD PLATE) “inactive; negative”; (Test System: E. COLI, Strain/Indicator: WP2, Metabolic Activation: RAT, LIVER, S-9, AROCLOR 1254, Method: STANDARD PLATE) “inactive; negative”.
With `CCCCOC(=O)c1ccccc1C(=O)OCCCC`, the mutagenic call under setting [1] is “inactive; negative”; the mutagenic call under setting [2] was “inactive; negative”; the mutagenic call under setting [3] is “inactive; negative”; the mutagenic call under setting [4] is “inactive; negative”; the mutagenic call under setting [5] is “inactive; negative”; the mutagenic call under setting [12] was “active; positive”. The mutagenic call is “inactive; negative” under setting [6]; “inactive; negative” (Test System: AMES SALMONELLA TYPHIMURIUM, Strain/Indicator: TA100, Metabolic Activation: S-9, Method: STANDARD PLATE); “inactive; negative” under setting [7]; “inactive; negative” under setting [8]; “inactive; negative” under setting [14]; “inactive; negative” under setting [9]. The mutagenic call (Test System: AMES SALMONELLA TYPHIMURIUM, Strain/Indicator: TA1535, Metabolic Activation: S-9, Method: STANDARD PLATE) was “inactive; negative”; the mutagenic call (Test System: AMES SALMONELLA TYPHIMURIUM, Strain/Indicator: TA1537, Metabolic Activation: HAMSTER, LIVER, S-9, AROCLOR 1254 (10%), Method: PREINCUBATION) is “inactive; negative”; the mutagenic call (Test System: AMES SALMONELLA TYPHIMURIUM, Strain/Indicator: TA1537, Metabolic Activation: NONE, Method: PREINCUBATION) is “inactive; negative”; the mutagenic call (Test System: AMES SALMONELLA TYPHIMURIUM, Strain/Indicator: TA1537, Metabolic Activation: RAT, LIVER, S-9, AROCLOR 1254 (10%), Method: PREINCUBATION) is “inactive; negative”; the mutagenic call (Test System: MOUSE LYMPHOMA, Strain/Indicator: L5178Y (TK+/TK-), Metabolic Activation: NONE, Method: SUSPENSION/PLATE) was “inactive; negative”; the mutagenic call (Test System: MOUSE LYMPHOMA, Strain/Indicator: L5178Y (TK+/TK-), Metabolic Activation: RAT LIVER S-9, Method: SUSPENSION/PLATE) was “active; positive”.
As to `C[C@@H]1O[C@@H](O[C@H]2[C@H](O[C@H]3[C@H](O[C@H]4CC[C@@]5(C)[C@@H](CC[C@]6(C)[C@@H]5CC=C5[C@@H]7CC(C)(C)C[C@@H](O)[C@]7(C)CC[C@]56C)[C@@]4(C)CO)O[C@H](C(=O)O)[C@@H](O)[C@@H]3O)O[C@H](CO)[C@H](O)[C@@H]2O)[C@H](O)[C@H](O)[C@H]1O`, the mutagenic call is “inactive; negative” (Test System: AMES SALMONELLA TYPHIMURIUM, Strain/Indicator: TA97, Metabolic Activation: NONE, Method: STANDARD PLATE); “inactive; negative” (Test System: AMES SALMONELLA TYPHIMURIUM, Strain/Indicator: TA97, Metabolic Activation: RAT, LIVER, S-9, AROCLOR 1254, Method: STANDARD PLATE); “inactive; negative” under setting [10]; “inactive; negative” under setting [11]; “inactive; negative” under setting [12]; “inactive; negative” under setting [13]. In addition, the mutagenic call runs as follows: (Test System: AMES SALMONELLA TYPHIMURIUM, Strain/Indicator: TA102, Metabolic Activation: NONE, Method: STANDARD PLATE) “inactive; negative”; (Test System: AMES SALMONELLA TYPHIMURIUM, Strain/Indicator: TA102, Metabolic Activation: RAT, LIVER, S-9, AROCLOR 1254, Method: STANDARD PLATE) “inactive; negative”.
